Assay results as given in patent US12071408B2, “Multi-targeted tyrosine kinase inhibitors effective in antitumor uses” (Shanghai AB PharmaTech Ltd., priority 2021, dated 2024).
“And” between values parts separate entries of the source, which are not always exact repeats. Equal entries are not always repeated. Where two headings read alike, the source gives them in different places.

Legend:
[1] = system: thyroid cancer cell line (TT); assay: Tumor cell proliferation inhibition (CTG, 72 h); assay type: cell-based
VEGFR-2 (KDR) = VEGFR-2 (KDR) (Homo sapiens (Human), UniProt P35968); assay: Kinase inhibition, Mobility-Shift Assay; assay type: biochemical
hERG potassium channels = hERG potassium channels (Homo sapiens (Human), UniProt Q12809); assay: hERG in vitro inhibition, whole-cell patch clamp; assay type: cell-based; details: in vitro hERG current inhibition
[2] = system: bladder cancer cell line (RT112/84); assay: Tumor cell proliferation inhibition (CTG, 72 h); assay type: cell-based; details: Homo sapiens
VEGFR-3 (FLT4) = VEGFR-3 (FLT4) (Homo sapiens (Human), UniProt P35916); assay: Kinase inhibition, Mobility-Shift Assay; assay type: biochemical
RET = RET (Homo sapiens (Human), UniProt P07949); assay: Kinase inhibition, Mobility-Shift Assay; assay type: biochemical
FGFR3 = FGFR3 (Homo sapiens (Human), UniProt P22607); assay: Kinase inhibition, Mobility-Shift Assay; assay type: biochemical; details: read-out: FGFR-3 IC50
Description: In this experiment, the inhibitory effects of small molecule inhibitors on 17 kinases were examined by using fluorescent microfluidic mobility shift assay (Mobility-Shift Assay).
2. Compounds were configured in 100% DMSO in a concentration gradient and diluted with buffer to 10% DMSO, and added to 384-well plates. Compounds starting at […] are prepared in 100% DMSO to 25 μM and diluted in a gradient of 10 concentrations, then diluted 10-fold in buffer to make an intermediate dilution of the compound containing 10% DMSO and transferred 5 μl to a 384-well plate. 3. The kinase was diluted to optimal concentration with the following buffers: 50 mM HEPES, pH 7.5, 0.00015% Brij-35, 2 mM DTT (final concentration of enzyme reaction: VEGFR-1 (FLT1): 2 nM; VEGFR-2 (KDR): 1.2 nM; VEGFR-3 (FLT4): 1.5 nM; FGFR1: 2 nM); FGFR2: 9 nM; FGFR3: 8 nM; FGFR4: 10 nM; PDGFRα: 3.5 nM; c-MET: 10 nM; RET: 7 nM; EGFR: 6 nM). Transfer 10 μl into a 384-well plate and incubate with the compounds for 10 min. 4. […] Read the conversion rate with Caliper Reader and calculate the conversion rate as suppression, formula Percent inhIcition=(max−conversion)/(max−min)*100. […]

[3] = system: hepatocellular carcinoma cell line (Hep3B 2.1-7); assay: Tumor cell proliferation inhibition (CTG, 72 h); assay type: cell-based; details: Homo sapiens; Hep3B 2.1-7 cells, class; read-out: Hep3B 2.1-7 range of activity (IC50)
PDGFRα = PDGFRα (Homo sapiens (Human), UniProt P16234); assay: Kinase inhibition, Mobility-Shift Assay; assay type: biochemical
C-MET = C-MET (Homo sapiens (Human), UniProt P08581); assay: Kinase inhibition, Mobility-Shift Assay; assay type: biochemical
rats [4] = assay: MTD toxicity test in rats; details: rat, in vivo, 300 mg/kg
[5] = MTD toxicity test in rats; details: rat, in vivo
rats [6] = assay: 28-day GLP toxicity test; assay type: in vivo; details: 50, 100, 150 mg/kg once a day by gavage, 28 days
Description: The 28-day GLP toxicity test also used healthy rats at three doses (50 mg/kg, 100 mg/kg, 150 mg/kg), and the three groups of rats were administered once a day by gavage, and the toxicity of the test substance was evaluated by observing the toxicity response of the experimental animals for 28 consecutive days. […] Therefore, the preferred compound “III-01” designed and synthesized by the present invention not only has better inhibitory activity, but also has better safety and drug-forming properties, which is worthy of further clinical trials and application.

EGFR = EGFR (Homo sapiens (Human), UniProt P00533); assay: Kinase inhibition, Mobility-Shift Assay; assay type: biochemical
FGFR2 = FGFR2 (Homo sapiens (Human), UniProt P21802); assay: Kinase inhibition, Mobility-Shift Assay; assay type: biochemical
FGFR1 = FGFR1 (Homo sapiens (Human), UniProt P11362); assay: Kinase inhibition, Mobility-Shift Assay; assay type: biochemical; details: read-out: FGFR-1 IC50
[7] = system: cervical cancer cell line (Hela); assay: Tumor cell proliferation inhibition (CTG, 72 h); assay type: cell-based; details: Homo sapiens; Hela cells, class; read-out: Hela activity effect range (IC50)
ABL = ABL (Homo sapiens (Human), UniProt P00519); assay: Kinase inhibition, Mobility-Shift Assay; assay type: biochemical
[8] = system: leukemia cell line (K562); assay: Tumor cell proliferation inhibition (CTG, 72 h); assay type: cell-based; details: Homo sapiens; K562 cells, class; read-out: K562 activity effect range (IC50)
VEGFR-1 (FLT1) = VEGFR-1 (FLT1) (Homo sapiens (Human), UniProt P17948); assay: Kinase inhibition, Mobility-Shift Assay; assay type: biochemical
FGFR4 = FGFR4 (Homo sapiens (Human), UniProt P22455); assay: Kinase inhibition, Mobility-Shift Assay; assay type: biochemical
[9] = Homo sapiens, TT cells, class, read-out: TT range of activity (IC50)
[10] = TT thyroid cancer cells, 72 h, read-out: TT (uM), inhibitory activity IC50
[11] = class, read-out: KDR activity effect range (IC50)
[12] = RT112/84 bladder cancer cells, 72 h, read-out: RT112/84 (uM), inhibitory activity IC50
[13] = RT112/84 cells, class, read-out: RT112/84 range of activity (IC50)
[14] = class, read-out: C-MET range of activity (IC50)
[15] = class, read-out: EGFR range of activity (IC50)
[16] = class, read-out: FGFR2 range of activity effects (IC50)
[17] = class, read-out: FGFR4 range of activity effects (IC50)

FGFR2, sequence (P21802 22-821): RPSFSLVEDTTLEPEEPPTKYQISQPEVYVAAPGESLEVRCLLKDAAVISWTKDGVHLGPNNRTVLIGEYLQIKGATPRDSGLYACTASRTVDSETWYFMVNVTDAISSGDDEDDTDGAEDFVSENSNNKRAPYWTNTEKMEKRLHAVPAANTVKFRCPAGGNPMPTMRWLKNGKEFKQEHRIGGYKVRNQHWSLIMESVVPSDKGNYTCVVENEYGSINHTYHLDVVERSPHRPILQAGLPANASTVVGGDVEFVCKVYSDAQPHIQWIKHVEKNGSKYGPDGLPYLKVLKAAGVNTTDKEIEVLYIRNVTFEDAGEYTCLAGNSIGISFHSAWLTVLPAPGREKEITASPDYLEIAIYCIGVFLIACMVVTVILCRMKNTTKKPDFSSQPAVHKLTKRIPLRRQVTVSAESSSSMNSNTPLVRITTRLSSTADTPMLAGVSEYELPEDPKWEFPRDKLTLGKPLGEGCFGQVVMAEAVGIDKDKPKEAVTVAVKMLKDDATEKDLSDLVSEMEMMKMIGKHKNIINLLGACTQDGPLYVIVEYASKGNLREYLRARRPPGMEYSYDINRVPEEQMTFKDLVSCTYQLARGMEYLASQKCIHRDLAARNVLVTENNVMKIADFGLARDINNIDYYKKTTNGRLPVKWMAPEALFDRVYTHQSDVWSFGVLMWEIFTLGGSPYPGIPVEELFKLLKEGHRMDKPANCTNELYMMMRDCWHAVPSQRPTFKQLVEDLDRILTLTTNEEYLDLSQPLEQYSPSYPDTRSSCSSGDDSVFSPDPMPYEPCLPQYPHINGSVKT
EGFR, sequence (P00533 25-1210): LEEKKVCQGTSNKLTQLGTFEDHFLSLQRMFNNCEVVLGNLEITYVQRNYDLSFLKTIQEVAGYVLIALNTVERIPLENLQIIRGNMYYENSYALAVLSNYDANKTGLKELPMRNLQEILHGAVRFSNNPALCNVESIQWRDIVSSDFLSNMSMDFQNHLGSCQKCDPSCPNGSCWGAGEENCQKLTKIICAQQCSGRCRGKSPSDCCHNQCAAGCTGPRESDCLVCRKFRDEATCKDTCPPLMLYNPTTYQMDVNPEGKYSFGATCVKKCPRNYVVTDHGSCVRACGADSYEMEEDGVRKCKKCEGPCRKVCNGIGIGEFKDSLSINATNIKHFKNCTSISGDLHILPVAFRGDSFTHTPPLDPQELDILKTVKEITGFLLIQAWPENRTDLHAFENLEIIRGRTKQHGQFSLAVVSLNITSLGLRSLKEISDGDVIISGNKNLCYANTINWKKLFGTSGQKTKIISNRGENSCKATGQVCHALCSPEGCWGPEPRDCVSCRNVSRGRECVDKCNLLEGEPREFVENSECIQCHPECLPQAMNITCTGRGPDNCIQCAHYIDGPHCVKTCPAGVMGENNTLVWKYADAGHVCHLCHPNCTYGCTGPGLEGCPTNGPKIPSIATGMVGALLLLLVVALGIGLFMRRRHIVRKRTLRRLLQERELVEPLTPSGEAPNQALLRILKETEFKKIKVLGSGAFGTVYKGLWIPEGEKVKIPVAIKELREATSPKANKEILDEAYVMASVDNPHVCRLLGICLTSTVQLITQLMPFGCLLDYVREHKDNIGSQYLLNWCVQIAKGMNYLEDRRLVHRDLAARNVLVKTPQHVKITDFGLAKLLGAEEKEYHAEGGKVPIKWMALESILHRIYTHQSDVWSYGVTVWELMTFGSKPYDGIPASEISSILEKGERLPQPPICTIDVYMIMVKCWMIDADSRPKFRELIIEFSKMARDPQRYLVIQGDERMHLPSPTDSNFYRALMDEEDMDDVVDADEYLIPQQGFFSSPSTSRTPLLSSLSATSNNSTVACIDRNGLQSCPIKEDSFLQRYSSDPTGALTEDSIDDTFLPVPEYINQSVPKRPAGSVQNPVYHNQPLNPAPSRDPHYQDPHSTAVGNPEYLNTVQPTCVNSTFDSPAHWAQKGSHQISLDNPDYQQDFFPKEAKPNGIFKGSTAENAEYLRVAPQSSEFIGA
VEGFR-2 (KDR), sequence (P35968 20-1356): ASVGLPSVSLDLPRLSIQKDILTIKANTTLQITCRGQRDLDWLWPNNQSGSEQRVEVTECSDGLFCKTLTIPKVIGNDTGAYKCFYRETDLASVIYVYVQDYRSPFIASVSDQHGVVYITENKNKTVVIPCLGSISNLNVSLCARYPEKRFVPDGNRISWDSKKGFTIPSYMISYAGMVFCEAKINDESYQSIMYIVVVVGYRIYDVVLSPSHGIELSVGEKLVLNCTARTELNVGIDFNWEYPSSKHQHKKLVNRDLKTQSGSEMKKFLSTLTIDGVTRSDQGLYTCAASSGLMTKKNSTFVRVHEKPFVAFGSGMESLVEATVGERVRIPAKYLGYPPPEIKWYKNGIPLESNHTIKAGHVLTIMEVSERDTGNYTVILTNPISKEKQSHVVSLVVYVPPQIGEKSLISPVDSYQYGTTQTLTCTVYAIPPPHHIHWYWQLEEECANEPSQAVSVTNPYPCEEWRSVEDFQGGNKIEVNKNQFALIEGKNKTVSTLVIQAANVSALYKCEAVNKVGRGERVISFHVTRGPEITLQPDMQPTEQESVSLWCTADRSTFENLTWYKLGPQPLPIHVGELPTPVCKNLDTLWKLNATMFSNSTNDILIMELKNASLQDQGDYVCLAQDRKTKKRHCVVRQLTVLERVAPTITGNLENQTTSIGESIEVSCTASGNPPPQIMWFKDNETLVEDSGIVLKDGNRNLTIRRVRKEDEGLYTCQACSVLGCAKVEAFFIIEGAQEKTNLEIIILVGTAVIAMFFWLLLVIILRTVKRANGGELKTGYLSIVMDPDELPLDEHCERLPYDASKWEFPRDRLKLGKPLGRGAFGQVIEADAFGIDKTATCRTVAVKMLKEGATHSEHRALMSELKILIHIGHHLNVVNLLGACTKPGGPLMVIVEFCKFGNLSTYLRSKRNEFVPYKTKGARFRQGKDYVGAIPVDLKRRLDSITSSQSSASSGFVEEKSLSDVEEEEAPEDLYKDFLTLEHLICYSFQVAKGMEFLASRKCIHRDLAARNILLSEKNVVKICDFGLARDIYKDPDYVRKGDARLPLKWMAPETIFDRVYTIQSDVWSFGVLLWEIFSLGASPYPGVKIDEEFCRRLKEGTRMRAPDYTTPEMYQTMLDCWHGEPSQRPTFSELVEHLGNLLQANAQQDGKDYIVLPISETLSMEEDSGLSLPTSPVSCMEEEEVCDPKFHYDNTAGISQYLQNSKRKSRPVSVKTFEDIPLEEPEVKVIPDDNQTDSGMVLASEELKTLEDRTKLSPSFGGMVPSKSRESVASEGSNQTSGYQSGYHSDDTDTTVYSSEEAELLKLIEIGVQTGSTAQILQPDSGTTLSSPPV
FGFR4, sequence (P22455 22-802): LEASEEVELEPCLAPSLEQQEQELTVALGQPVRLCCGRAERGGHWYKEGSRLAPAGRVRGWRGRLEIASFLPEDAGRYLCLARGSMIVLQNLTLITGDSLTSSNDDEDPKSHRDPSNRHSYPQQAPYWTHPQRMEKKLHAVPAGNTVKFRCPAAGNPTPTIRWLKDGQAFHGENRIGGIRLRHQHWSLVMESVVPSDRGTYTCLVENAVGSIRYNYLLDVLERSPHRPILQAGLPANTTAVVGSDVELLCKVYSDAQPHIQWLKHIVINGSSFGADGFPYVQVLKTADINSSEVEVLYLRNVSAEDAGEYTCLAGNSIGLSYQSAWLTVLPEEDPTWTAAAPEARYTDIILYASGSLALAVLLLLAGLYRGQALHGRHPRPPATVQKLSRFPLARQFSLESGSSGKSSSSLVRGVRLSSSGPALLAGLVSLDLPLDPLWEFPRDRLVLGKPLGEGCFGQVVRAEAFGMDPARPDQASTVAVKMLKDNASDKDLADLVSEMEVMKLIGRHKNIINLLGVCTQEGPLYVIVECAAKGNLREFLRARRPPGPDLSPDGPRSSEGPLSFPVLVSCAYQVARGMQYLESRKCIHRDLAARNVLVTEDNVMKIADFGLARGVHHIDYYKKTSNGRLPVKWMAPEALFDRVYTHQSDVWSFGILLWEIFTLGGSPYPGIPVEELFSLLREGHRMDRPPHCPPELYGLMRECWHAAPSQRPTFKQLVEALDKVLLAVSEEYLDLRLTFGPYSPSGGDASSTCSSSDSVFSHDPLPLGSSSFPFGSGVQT
FGFR3, sequence (P22607 23-806): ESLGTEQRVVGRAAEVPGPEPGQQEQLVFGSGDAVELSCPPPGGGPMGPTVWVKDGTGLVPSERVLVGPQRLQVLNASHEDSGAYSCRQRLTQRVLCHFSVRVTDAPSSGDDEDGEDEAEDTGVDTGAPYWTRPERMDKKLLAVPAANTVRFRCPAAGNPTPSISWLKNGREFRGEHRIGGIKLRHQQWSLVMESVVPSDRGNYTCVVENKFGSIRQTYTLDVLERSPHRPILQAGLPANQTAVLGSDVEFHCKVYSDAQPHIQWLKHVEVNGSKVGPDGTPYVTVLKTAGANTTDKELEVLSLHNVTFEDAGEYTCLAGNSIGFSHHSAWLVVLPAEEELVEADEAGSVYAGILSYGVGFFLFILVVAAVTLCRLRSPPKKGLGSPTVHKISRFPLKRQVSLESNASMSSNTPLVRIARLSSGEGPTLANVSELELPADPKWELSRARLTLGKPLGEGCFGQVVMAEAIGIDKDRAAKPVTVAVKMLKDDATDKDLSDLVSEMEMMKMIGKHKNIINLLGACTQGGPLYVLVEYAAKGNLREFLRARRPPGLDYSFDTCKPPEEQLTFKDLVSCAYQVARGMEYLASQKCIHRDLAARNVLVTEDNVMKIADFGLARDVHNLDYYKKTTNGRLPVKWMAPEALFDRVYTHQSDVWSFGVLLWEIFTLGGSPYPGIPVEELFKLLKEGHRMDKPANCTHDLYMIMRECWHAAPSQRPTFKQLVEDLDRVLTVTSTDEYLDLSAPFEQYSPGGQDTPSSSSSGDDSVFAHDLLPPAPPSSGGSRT

SMILES | IC50 [1, 9] [µM] | IC50 [1, 10] [µM] | IC50 (VEGFR-2 (KDR); [11]) [nM] | IC50 (VEGFR-2 (KDR); read-out: VEGFR-2 (KDR) IC50) [nM] | IC50 (hERG potassium channels) [nM] | IC50 [2, 12] [µM] | IC50 [2, 13] [µM] | IC50 (VEGFR-3 (FLT4)) [nM] | IC50 (FGFR3) [nM] | IC50 [3] [nM] | IC50 (PDGFRα) [nM] | IC50 (C-MET; [14]) [nM] | IC50 (C-MET; read-out: C-MET IC50) [nM] | IC50 (EGFR; [15]) [nM] | IC50 (EGFR; read-out: EGFR IC50) | IC50 (FGFR2; [16]) [nM] | IC50 (FGFR2; read-out: FGFR-2 IC50) [nM] | IC50 (FGFR1) [nM] | IC50 (FGFR4; [17]) [nM] | IC50 (FGFR4; read-out: FGFR-4 IC50) [nM] | other results
COc1cc2nccc(Oc3c(F)cc(NC(=O)NC4CC4)c(Cl)c3F)c2cc1C(N)=O [III-01] | < 5 | 1.5 | < 2 | 0.6 | > 30000 | 0.13 | < 0.2 | 1.1 | 22 | < 2500 | 7.9 | 60 to 100 | 96 | < 60 | 58 nM and 53 nM | < 30 | 11 | 14 | < 30 | 17 | IC50 (RET): 2.5 nM; Observation at MTD dose (rats [4]): without any abnormalities such as death; MTD ([5]; 300 mg/kg, rats, read-out: MTD toxicity dose): 300 mg/kg; MTD ([5]; rats, read-out: MTD toxicity dose): > 300 mg/kg; Autopsy results, 28-day GLP toxicity test (rats [6]): did not reveal any abnormal changes; IC50 [7]: 5000 to 10000 nM; IC50 (ABL): 68 nM; IC50 [8]: 5000 to 10000 nM; IC50 (VEGFR-1 (FLT1)): 3.7 nM; Ames assay (Ames assay): negative
COc1cc2nccc(Oc3ccc(NC(=O)NC4CC4)c(Cl)c3F)c2cc1C(N)=O [Ref-2, reference compound] |  | 6.4 |  | 8.6 | 15400 | 0.42 |  |  |  |  |  |  |  |  | > 1000 nM |  |  |  |  | 39 | 
COc1cc2nccc(Oc3ccc(NC(=O)NC4CC4)c(Cl)c3)c2cc1C(N)=O [Lenvatinib, reference compound] | > 10 | > 10 |  |  |  | 0.29 | 0.2 to 1 | 3.2 | 59 |  | 27 | > 100 | > 1000 |  |  | 30 to 100 | 27 | 56 | 30 to 100 | 65 | MTD [5]: 40 mg/kg
CNC(=O)c1cc(Oc2ccc(NC(=O)Nc3ccc(Cl)c(C(F)(F)F)c3)c(F)c2)ccn1 [Regorafenib, reference compound] | > 10 |  |  |  |  |  | 0.2 to 1 |  | 62 |  |  | > 100 | > 1000 | > 100 | > 1000 nM |  |  |  | > 100 | > 500 | IC50 (ABL): > 500 nM
COc1cc2nccc(Oc3c(F)cc(NC(=O)NC4(C(F)(F)F)CC4)c(Cl)c3F)c2cc1C(N)=O [III-39] | > 10 |  | > 10 |  |  |  | > 1 |  |  | > 5000 |  | > 100 |  | > 100 |  | > 100 |  |  | > 100 |  | IC50 [7]: > 10000 nM; IC50 [8]: > 10000 nM
